Reference: ChEMBL document CHEMBL1123073, “Conjugates of catecholamines. 6. Synthesis and beta-adrenergic activity of N-(hydroxyalkyl)catecholamine derivatives” (1985)

Assay: Relative potency was determined in vitro by measuring the accumulation of cyclic AMP in SV-49 mouse lymphoma cells relative to dl-isoproterenol
Type: functional

Compound	Relative potency
O=P(O)(O)O.OCCCNCC(O)c1ccc(O)c(O)c1 (centres undefined)	0.0058
Cc1ccc(C(=O)OCCCC(C)NCC(O)c2ccc(O)c(O)c2)cc1.O=P(O)(O)O (centres undefined)	0.0063
CC(CCCOC(=O)NC1CCCCC1)NCC(O)c1ccc(O)c(O)c1.Cl (centres undefined)	29
Cc1ccc(NC(=O)OCCCCC(C)NCC(O)c2ccc(O)c(O)c2)cc1.O=P(O)(O)O (centres undefined)	1.3
Cc1ccc(C(=O)NC(=O)OCCCC(C)NCC(O)c2ccc(O)c(O)c2)cc1.Cl (centres undefined)	73
CC(CCO)NCC(O)c1ccc(O)c(O)c1.O=P(O)(O)O (centres undefined)	0.012
CCCCNC(=O)OCCCC(C)NCC(O)c1ccc(O)c(O)c1.O=P(O)(O)O (centres undefined)	190
Cc1ccc(NC(=O)OCCCC(C)NCC(O)c2ccc(O)c(O)c2)cc1.O=P(O)(O)O (centres undefined)	0.092
CC(CCCO)NCC(O)c1ccc(O)c(O)c1.O=P(O)(O)O (centres undefined)	1.3
